This assay concerns CEM cells HIV-1 protection, formazan growth assay. Briefly: NCI AIDS Antiviral Assay. The settings on record: for IC50: measured here: growth of uninfected CEM cells. The procedure, abridged: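 CEM (human) cells, HIV-1 infected vs uninfected, 5-point dosing, formazan growth read-out. Retest threshold 50% protection.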

By EC50 is commonly meant the concentration needed to bring the measured effect to its halfway point. In general, IC50 refers to the midpoint of a concentration-inhibition curve.

“And” between values parts separate entries of the source, which are not always exact repeats. Equal entries are not always repeated. The source made the active and inactive calls.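 The calls were made as follows: active = compounds giving half or more protection of infected cells from virus-caused growth loss, again on retest; inactive = the rest.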

Consider `NC1=NS(=O)(=O)Nc2nc(-c3ccccc3)c(-c3ccccc3)nc21`, for which the EC50 is > 355 µM and the IC50 worked out at 182 µM. With `CC(=O)NCc1c(C(N)=O)ncn1Cc1ccccc1`, the result was inactive.

In the case of `N#Cc1nc(CCCCCN2C(=O)c3ccccc3C2=O)oc1N`, the EC50 was > 200 µM and the IC50 is > 200 µM. Turning to `O=[N+]([O-])c1cc2ccc(N(CCO)CCO)nc2nc1N(CCO)CCO`, the EC50 is > 200 µM and the IC50 is > 200 µM.

For `Cc1ccc(S(=O)(=O)N2CCC3(C(/C=C/c4ccccc4)=Nc4ccccc43)C2c2ccccc2)cc1` (stereo unspecified), the result was inactive. Consider `Cc1ccc(NC(=O)CC/C(CC(=O)C(C)(C)C)=N/NC(=O)C[N+](C)(C)C)cc1C`, for which the EC50 is > 209 µM and the IC50 is > 209 µM. For `Cc1c(/C=N/NC(=O)c2ccccc2)c(=O)n(-c2ccccc2)n1C`, the EC50 is > 200 µM and the IC50 is > 200 µM.

As to `CC(=O)OCC1OC(Nc2ccc3nc(C)n(-c4ccccc4)c(=O)c3c2)C(OC(C)=O)C(OC(C)=O)C1OC(C)=O` (stereo unspecified), the EC50 was > 100 µM and the IC50 is 61.7 µM. On to `Cn1c(=O)nc2n(-c3ccc(O)cc3)c3ccccc3nc-2c1=O`, for which the outcome was inactive. On to `O=C1C=CC=C/C1=C1/SC(c2ccccc2)=C(O)N1c1ccccc1`, for which the result was inactive. Same read-out and setting: as for `C/C(O)=c1\cc(C#N)c(=C(C#N)C#N)nc1C`, the entry is “inactive”. `O=c1[nH]c(=O)n([C@H]2C[C@@H](CO)[C@@H](O)C2)cc1I`: the EC50 is > 708 µM and the IC50 is > 708 µM.

As to `O=C1c2n[nH]nc2C(=O)c2n[nH]nc21`, the EC50 is > 200 µM and the IC50 is > 200 µM. As for `COc1cc(O)c2c(c1)O[C@H](C)[C@H](C)C2=O`, the EC50 was 100 µM and the IC50 was > 200 µM. On the same counts, the results for `O=C1C=C(c2ccccc2)OC1(Cl)c1ccccc1` (stereo unspecified) are > 200 µM and 38 µM. On the same counts, the results for `COc1cc(OC)c(OC)cc1/C=C1\C=Cc2ccccc21` are > 17.8 µM and > 17.8 µM. With `CC1=N/C(=C\c2ccc(C)cc2)C(=O)O1`, the EC50 is > 129 µM, the result was inactive and the IC50 was > 129 µM. As to `CCOC(=O)CN(c1sc(C)c(-c2ccccc2)c1C(=O)OCC)S(=O)(=O)c1ccc(C)cc1`, the EC50 was > 200 µM and the IC50 came to 5.13 µM. On the same counts, the results for `O=C1OC2CS(=O)CC2O1` (stereo unspecified) are > 1550 µM and > 1550 µM. As to `Cc1ccnc(NS(=O)(=O)c2ccc(NC3=CC(=O)C(=O)c4ccccc43)cc2)n1`, the result was inactive.

As to `O=C1CCC2=C(CCC2)N1CCc1ccc2c(c1)OCO2`, the outcome was inactive. In the case of `C=CC(c1ccccc1)[C@@]1(OC(C)=O)C(=O)C(=O)OC1C1COC(C)(C)O1` (stereo partly specified), the EC50 was > 200 µM and the IC50 turned out to be 6.46 µM. On the same counts, the results for `CC(C)(C)N1C(=O)c2ccccc2C1(O)C(F)(F)F` (stereo unspecified) are > 200 µM and 135 µM. On the same counts, the results for `S=P(c1ccccc1)(c1ccccc1)C1(C2(P(=S)(c3ccccc3)c3ccccc3)CC2)CC1` are > 10 µM and > 10 µM. Turning to `COC1/C=C/OC2(C)Oc3c(C)c(O)c4c(O)c(c(/C=N/N5CC(C)(C)N(Cc6ccccc6)CC5(C)C)c(O)c4c3C2=O)NC(=O)C(C)=C/C=C/C(C)C(O)C(C)C(O)C(C)C(OC(C)=O)C1C` (stereo unspecified), the EC50 was > 27.5 µM and the IC50 is 3.31 µM. Taken in the same sequence, the figures for `O=C(/C=C/c1ccc(F)c(F)c1)OCCc1ccccc1` were > 200 µM and 38.9 µM. As to `CC(C)=CCCC1(C)C2COC(=O)C21` (stereo unspecified), the EC50 is > 200 µM; the IC50 is 70.8 µM and 15.1 µM. `N#CC1(C#N)C2=C(CCCC2)NC(c2ccc(Br)cc2)C1(C#N)C#N` (stereo unspecified): the EC50 is > 0.2 µM and the IC50 was 0.0813 µM. As to `O=c1c(Cl)c(Cl)cnn1CCc1ccncc1`, the EC50 was > 132 µM and the IC50 was found to be 7.08 µM. On to `CCOC(=O)C(NC(=O)c1cccc(Cl)c1)(N1CCN(c2cc3c(cc2F)c(=O)c(C(=O)O)cn3CC)CC1)C(F)(F)F` (stereo unspecified), for which the EC50 was > 200 µM and the IC50 amounted to 0.339 µM.

For the compound `CC[C@@]1(O)C(=O)OCc2c1cc1n(c2=O)Cc2cc3c(OC)cccc3nc2-1`, the EC50 was > 0.1 µM and the half-inhibitory concentration (IC50) came to 0.0141 µM.

On to `NC(=O)c1ccc2c(c1)-c1nc-2nc2[n-]c(nc3nc(nc4[n-]c(n1)c1ccc(C(N)=O)cc41)-c1ccc(C(N)=O)cc1-3)c1ccc(C(N)=O)cc21.[Co+2]`, for which the EC50 is > 9.77 µM and the IC50 was 6.61 µM. Taken in the same sequence, the figures for `CC(C)N=C1CCCC1C(=S)SSC(=S)C1CCCC1=NC(C)C` (stereo unspecified) were > 200 µM and 10.7 µM.

Regarding `O=C1OC(=Nc2ccccc2Cl)c2ccccc21`, the EC50 was > 200 µM and the IC50 is > 200 µM. `CC(C)CCC[C@@H](C)[C@H]1CC[C@H]2[C@@H]3CC=C4CC(OC(=O)OC5CCC6(C)CC7C=CC6(OO7)C5(C)C)CC[C@]4(C)[C@H]3CC[C@]12C` (stereo partly specified): the EC50 was > 100 µM and the half-maximal inhibitory concentration (IC50) is > 100 µM. Take `Nc1ccc(/C=C\c2ccc([N+](=O)[O-])cc2S(=O)(=O)O)c(S(=O)(=O)O)c1`: the EC50 was > 200 µM and the IC50 was > 200 µM. For the compound `CN(C)/C(N)=N/C(N)=Nc1cccc(Cl)c1`, the EC50 was > 200 µM and the IC50 came out at 83.2 µM. Taken in the same sequence, the figures for `O=C1C=CC(=O)C(CNc2ccc(C(=O)OC34CC5CC(CC(C5)C3)C4)cc2)=C1Br` were > 200 µM and 1.51 µM.

As for `O=C(O)C1(Cc2ccc3c(c2)CCC3)Cc2cc3c(cc2C1)CCC3`, the EC50 is > 200 µM and the IC50 worked out at 35.5 µM.

With `CC12c3c4cccc3Oc3cc(N)cc(c31)Oc1cc(N)cc(c12)O4`, the EC50 is > 200 µM and the IC50 came out at 2.88 µM. On the same counts, the results for `CCSCCCCCCCCCCCC(=O)OCC1OC(n2cc(C)c(=O)[nH]c2=O)CC1F` (stereo unspecified) are 0.0158 µM and 2 µM. As for `Cc1ccc(N2CC(=O)N3CCCC(C)N3C(=O)C2)cc1` (stereo unspecified), the EC50 was > 200 µM and the IC50 amounted to 174 µM.

Take `CCCCCCCCCCCCCCNC1=C(OC)C(=O)C(NCCCCCCCCCCCCCC)=C(OC)C1=O`: the EC50 was > 79.4 µM and the IC50 was > 79.4 µM. For `Cc1cccc2c(N)c3cccc(C(=O)NCC[N+]4(Cc5ccc([N+](=O)[O-])cc5)CCOCC4)c3nc12`, the EC50 was > 200 µM and the IC50 stood at 30.2 µM. In the case of `N#CCN1CCOCCOCCN(CC#N)CCOCCOCC1`, the outcome was inactive. For `O=C(NC(CO)CO)c1ccc2cc(C(=O)N3CC(CCl)c4ccc([N+](=O)[O-])cc43)[nH]c2c1` (stereo unspecified), the EC50 is > 200 µM and the IC50 was determined as 53.7 µM.

`CC1(C)Oc2ccc3c4c(c(=O)oc3c2[C@@H](OC(=O)C23CCC(C)(C(=O)O2)C3(C)C)[C@H]1OC(=O)C12CCC(C)(C(=O)O1)C2(C)C)CCCC4` (stereo partly specified): the EC50 is 0.813 µM and the IC50 worked out at 12 µM. As to `O=C1c2cccn2-c2ccccc2OC1(CC1CC1)c1ccccc1` (stereo unspecified), the EC50 was > 200 µM and the IC50 worked out at 11.5 µM. On the same counts, the results for `NC(=O)CC(NC(=O)OCc1ccccc1)C(=O)NC(Cc1ccccc1)C(=O)NC(Cc1ccccc1)NC(=O)C(Cc1c[nH]c2ccccc12)C(=O)O` (stereo unspecified) are > 50.1 µM and > 50.1 µM.

For the origin of these results see PubChem BioAssay AID179 (DTP/NCI, 2004).
